Article PMC6155021, “Ancient and modern anticonvulsants act synergistically in a KCNQ potassium channel binding pocket” (Nature Communications, 2018)

Tests used:
[1] = system: water-injected control oocytes; experiment: Two-electrode voltage-clamp of water-injected control oocytes; type: cell-based, Xenopus laevis
Source text: Chemicals were sourced from Sigma.

KCNQ4 = KCNQ4 (Homo sapiens, UniProt P56696); experiment: cell-based; type: cell-based
Source text: (§1) cRNA transcripts encoding human KCNA1, KCNQ1, KCNQ2, KCNQ3, KCNQ4, or KCNQ5 were generated by in vitro transcription using the T7 polymerase message machine kit (Thermo Fisher Scientific), after vector linearization, from cDNA sub-cloned into plasmids incorporating X. laevis β-globin 5′ and 3′ UTRs flanking the coding region to enhance translation and cRNA stability. cRNA was quantified by spectrophotometry. Mutant cDNAs were generated by site-directed mutagenesis using a QuikChange kit according to manufacturer’s protocol (Stratagene, San Diego, CA) and corresponding cRNAs prepared as above. Defolliculated stage V and VI X. laevis oocytes (Ecocyte Bioscience, Austin, TX) were injected with Kv channel α subunit cRNAs (10 ng total per oocyte). Oocytes were incubated at 16 °C in Barth’s saline solution (Ecocyte) containing penicillin and streptomycin, with daily washing, for 3–5 days prior to two-electrode voltage-clamp (TEVC) recording.
(§2) Oocytes were placed in a small-volume oocyte bath (Warner) and viewed with a dissection microscope. Chemicals were sourced from Sigma. Bath solution was (in mM): 96 NaCl, 4 KCl, 1 MgCl2, 1 CaCl2, 10 HEPES (pH 7.6). […] MTX (DMSO), sorbic acid (ethanol), and glutaconic acid (molecular grade H2O) were stored at −20 °C as 1 M stocks. Oleamide was stored as a 1 mM stock in ethanol at 4 °C. Palmitic acid was conjugated with bovine serum albumin as a 1 mM stock and stored at −20 °C. All compounds were diluted to working concentrations each experimental day. All compounds were introduced to the recording bath via gravity perfusion at a constant flow of 1 ml/min for 3 min prior to recording. Pipettes were of 1–2 MΩ resistance when filled with 3 M KCl. Currents were recorded in response to pulses between −80 and +40 mV at 20 mV intervals, or a single pulse to +40 mV, from a holding potential of −80 mV, to yield current–voltage relationships, current magnitude, and for quantifying activation rate. TEVC data analysis was performed with Clampfit10.2 (Molecular Devices) and Graphpad Prism software (GraphPad, San Diego, CA, USA); values are stated as mean ± SEM. Normalized tail currents were plotted versus prepulse voltage and fitted with a single Boltzmann function:1 g=A1-A2/1+expV12-Vy+A2, where g is the normalized tail conductance, A1 is the initial value at −∞, A2 is the final value at +∞, V1/2 is the half-maximal voltage of activation, and Vs the slope factor. Activation and deactivation kinetics were fitted with single-exponential functions.

KCNQ3* (KCNQ3-A315T) = KCNQ3* (KCNQ3-A315T) (Homo sapiens, UniProt O43525, A315T); experiment: cell-based; type: cell-based
Sequence of KCNQ3* (KCNQ3-A315T) (O43525 whole entry A315T, looked up): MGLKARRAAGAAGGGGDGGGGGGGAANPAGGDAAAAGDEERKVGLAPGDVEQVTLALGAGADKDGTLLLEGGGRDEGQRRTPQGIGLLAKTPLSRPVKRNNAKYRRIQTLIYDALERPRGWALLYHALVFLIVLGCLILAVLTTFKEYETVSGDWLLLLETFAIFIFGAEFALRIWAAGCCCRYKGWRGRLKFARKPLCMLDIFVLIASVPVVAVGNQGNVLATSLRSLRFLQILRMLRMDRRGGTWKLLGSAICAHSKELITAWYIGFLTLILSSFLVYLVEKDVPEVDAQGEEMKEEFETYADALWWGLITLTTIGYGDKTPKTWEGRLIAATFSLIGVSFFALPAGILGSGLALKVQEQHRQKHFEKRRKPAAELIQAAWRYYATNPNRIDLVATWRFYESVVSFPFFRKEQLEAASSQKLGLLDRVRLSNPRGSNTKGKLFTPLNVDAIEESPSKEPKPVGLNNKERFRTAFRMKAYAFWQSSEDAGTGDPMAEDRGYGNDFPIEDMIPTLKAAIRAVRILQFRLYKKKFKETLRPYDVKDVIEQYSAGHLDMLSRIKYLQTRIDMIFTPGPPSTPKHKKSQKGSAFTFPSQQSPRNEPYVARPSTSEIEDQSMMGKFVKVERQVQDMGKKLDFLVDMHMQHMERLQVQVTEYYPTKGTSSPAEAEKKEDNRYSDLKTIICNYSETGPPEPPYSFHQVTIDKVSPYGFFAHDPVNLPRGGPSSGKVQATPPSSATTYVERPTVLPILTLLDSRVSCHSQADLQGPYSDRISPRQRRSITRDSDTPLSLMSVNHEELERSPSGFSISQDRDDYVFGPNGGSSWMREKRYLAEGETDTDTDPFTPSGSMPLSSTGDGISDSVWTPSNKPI
Source text: as §1, §2

KCNQ2 = KCNQ2 (Homo sapiens, UniProt O43526); experiment: Two-electrode voltage-clamp of homomeric KCNQ2 in Xenopus oocytes; type: cell-based
Source text: as §1, §2

CC(=O)c1c(O)c(C)c(O)c(Cc2c(O)c3c(c(C(=O)/C=C/c4ccccc4)c2O)OC(C)(C)C=C3)c1O [MTX, mallotoxin]
effect on endogenous current and EM of water-injected control oocytes [1]: no effect | EC50 (KCNQ4): 20.2 µM | Non-normalized tail current V0.5 (KCNQ4; KCNQ4, 0.1 µM): -17.1 ± 8.1 mV | Normalized tail current V0.5 (KCNQ4; KCNQ4, 0.1 µM): -17.0 ± 1.6 mV | Slope (KCNQ4; KCNQ4, 0.1 µM): 14.1 ± 1.6 mV | τ act, -40 mV (KCNQ4; KCNQ4, 0.1 µM): 941 ± 52 ms | τ deact, -80 mV (KCNQ4; KCNQ4, 0.1 µM): 924 ± 223 ms | Non-normalized tail current V0.5 (KCNQ4; KCNQ4, 1 µM): -18.1 ± 9.0 mV | Normalized tail current V0.5 (KCNQ4; KCNQ4, 1 µM): -18.1 ± 1.9 mV | Slope (KCNQ4; KCNQ4, 1 µM): 15.0 ± 1.9 mV | τ act, -40 mV (KCNQ4; KCNQ4, 1 µM): 878 ± 78 ms | τ deact, -80 mV (KCNQ4; KCNQ4, 1 µM): 891 ± 234 ms | Non-normalized tail current V0.5 (KCNQ4; KCNQ4, 3 µM): -20.5 ± 9.8 mV | Normalized tail current V0.5 (KCNQ4; KCNQ4, 3 µM): -20.1 ± 1.3 mV | Slope (KCNQ4; KCNQ4, 3 µM): 15.6 ± 1.9 mV | τ act, -40 mV (KCNQ4; KCNQ4, 3 µM): 851 ± 70 ms | τ deact, -80 mV (KCNQ4; KCNQ4, 3 µM): 861 ± 240 ms | Non-normalized tail current V0.5 (KCNQ4; KCNQ4, 10 µM): -25.3 ± 9.7 mV | Normalized tail current V0.5 (KCNQ4; KCNQ4, 10 µM): -25.6 ± 1.9 mV | Slope (KCNQ4; KCNQ4, 10 µM): 15.9 ± 1.9 mV | τ act, -40 mV (KCNQ4; KCNQ4, 10 µM): 847 ± 94 ms | τ deact, -80 mV (KCNQ4; KCNQ4, 10 µM): 906 ± 293 ms | Non-normalized tail current V0.5 (KCNQ4; KCNQ4, 30 µM): -32.9 ± 9.7 mV | Normalized tail current V0.5 (KCNQ4; KCNQ4, 30 µM): -32.1 ± 1.9 mV | Slope (KCNQ4; KCNQ4, 30 µM): 14.4 ± 1.8 mV | shift in midpoint voltage of activation (KCNQ4; KCNQ4, 30 µM): −17 mV | τ act, -40 mV (KCNQ4; KCNQ4, 30 µM): 865 ± 108 ms | τ deact, -80 mV (KCNQ4; KCNQ4, 30 µM): 905 ± 283 ms | Non-normalized tail current V0.5 (KCNQ4; KCNQ4, 100 µM): -31.3 ± 9.4 mV | Normalized tail current V0.5 (KCNQ4; KCNQ4, 100 µM): -31.5 ± 1.3 mV | Slope (KCNQ4; KCNQ4, 100 µM): 16.4 ± 3.2 mV | τ act, -40 mV (KCNQ4; KCNQ4, 100 µM): 1092 ± 170 ms | τ deact, -80 mV (KCNQ4; KCNQ4, 100 µM): 1197 ± 446 ms | EC50 (KCNQ3* (KCNQ3-A315T)): 13 µM | Non-normalized tail current V0.5 (KCNQ3* (KCNQ3-A315T); KCNQ3*, 1 µM): -56.1 ± 4.2 mV | Normalized tail current V0.5 (KCNQ3* (KCNQ3-A315T); KCNQ3*, 1 µM): -56.4 ± 1.6 mV | τ act, -40 mV (KCNQ3* (KCNQ3-A315T); KCNQ3*, 1 µM): 552 ± 98 ms | τ deact, -80 mV (KCNQ3* (KCNQ3-A315T); KCNQ3*, 1 µM): 290 ± 51 ms | Non-normalized tail current V0.5 (KCNQ3* (KCNQ3-A315T); KCNQ3*, 3 µM): -57.4 ± 5.3 mV | Normalized tail current V0.5 (KCNQ3* (KCNQ3-A315T); KCNQ3*, 3 µM): -57.3 ± 1.4 mV | τ act, -40 mV (KCNQ3* (KCNQ3-A315T); KCNQ3*, 3 µM): 489 ± 55 ms | τ deact, -80 mV (KCNQ3* (KCNQ3-A315T); KCNQ3*, 3 µM): 263 ± 29 ms | Non-normalized tail current V0.5 (KCNQ3* (KCNQ3-A315T); KCNQ3*, 10 µM): -59.5 ± 4.2 mV | Normalized tail current V0.5 (KCNQ3* (KCNQ3-A315T); KCNQ3*, 10 µM): -59.5 ± 1.0 mV | τ act, -40 mV (KCNQ3* (KCNQ3-A315T); KCNQ3*, 10 µM): 421 ± 26 ms | τ deact, -80 mV (KCNQ3* (KCNQ3-A315T); KCNQ3*, 10 µM): 244 ± 17 ms | Non-normalized tail current V0.5 (KCNQ3* (KCNQ3-A315T); KCNQ3*, 30 µM): -62.1 ± 3.9 mV | Normalized tail current V0.5 (KCNQ3* (KCNQ3-A315T); KCNQ3*, 30 µM): -62.3 ± 1.2 mV | shift in midpoint voltage of activation (KCNQ3* (KCNQ3-A315T); KCNQ3*, 30 µM): −9 mV | τ act, -40 mV (KCNQ3* (KCNQ3-A315T); KCNQ3*, 30 µM): 388 ± 20 ms | τ deact, -80 mV (KCNQ3* (KCNQ3-A315T); KCNQ3*, 30 µM): 240 ± 18 ms | Non-normalized tail current V0.5 (KCNQ3* (KCNQ3-A315T); KCNQ3*, 100 µM): -65.2 ± 3.9 mV | Normalized tail current V0.5 (KCNQ3* (KCNQ3-A315T); KCNQ3*, 100 µM): -66.2 ± 2.1 mV | τ act, -40 mV (KCNQ3* (KCNQ3-A315T); KCNQ3*, 100 µM): 403 ± 36 ms | τ deact, -80 mV (KCNQ3* (KCNQ3-A315T); KCNQ3*, 100 µM): 269 ± 30 ms | EC50 (KCNQ2): 6.4 µM | Non-normalized tail current V0.5 (KCNQ2; KCNQ2, 0.1 µM): -50.0 ± 0.4 mV | Normalized tail current V0.5 (KCNQ2; KCNQ2, 0.1 µM): -50.0 ± 0.35 mV | Slope (KCNQ2; KCNQ2, 0.1 µM): 7.4 ± 0.23 mV | τ act, -40 mV (KCNQ2; KCNQ2, 0.1 µM): 538 ± 20 ms | τ deact, -80 mV (KCNQ2; KCNQ2, 0.1 µM): 294 ± 10 ms | Non-normalized tail current V0.5 (KCNQ2; KCNQ2, 1 µM): -51.7 ± 2.0 mV | Normalized tail current V0.5 (KCNQ2; KCNQ2, 1 µM): -51.4 ± 0.46 mV | Slope (KCNQ2; KCNQ2, 1 µM): 7.4 ± 0.31 mV | τ act, -40 mV (KCNQ2; KCNQ2, 1 µM): 490 ± 23 ms | τ deact, -80 mV (KCNQ2; KCNQ2, 1 µM): 271 ± 11 ms | Non-normalized tail current V0.5 (KCNQ2; KCNQ2, 3 µM): -52.1 ± 2.5 mV | Normalized tail current V0.5 (KCNQ2; KCNQ2, 3 µM): -54.9 ± 0.41 mV | Slope (KCNQ2; KCNQ2, 3 µM): 7.3 ± 0.33 mV | τ act, -40 mV (KCNQ2; KCNQ2, 3 µM): 417 ± 25 ms | τ deact, -80 mV (KCNQ2; KCNQ2, 3 µM): 237 ± 12 ms | Non-normalized tail current V0.5 (KCNQ2; KCNQ2, 10 µM): -61.7 ± 2.7 mV | Normalized tail current V0.5 (KCNQ2; KCNQ2, 10 µM): -61.2 ± 0.87 mV | Slope (KCNQ2; KCNQ2, 10 µM): 7.0 ± 1.0 mV | τ act, -40 mV (KCNQ2; KCNQ2, 10 µM): 341 ± 22 ms | τ deact, -80 mV (KCNQ2; KCNQ2, 10 µM): 199 ± 11 ms | Non-normalized tail current V0.5 (KCNQ2; KCNQ2, 30 µM): -68.7 ± 2.7 mV | Normalized tail current V0.5 (KCNQ2; KCNQ2, 30 µM): -68.5 ± 1.5 mV | Slope (KCNQ2; KCNQ2, 30 µM): 7.4 ± 0.6 mV | shift in midpoint voltage of activation (KCNQ2; KCNQ2, 30 µM): −24 mV | τ act, -40 mV (KCNQ2; KCNQ2, 30 µM): 301 ± 19 ms | τ deact, -80 mV (KCNQ2; KCNQ2, 30 µM): 173 ± 10 ms | Non-normalized tail current V0.5 (KCNQ2; KCNQ2, 100 µM): -66.2 ± 2.7 mV | Normalized tail current V0.5 (KCNQ2; KCNQ2, 100 µM): -66.0 ± 2.7 mV | Slope (KCNQ2; KCNQ2, 100 µM): 8.1 ± 1.2 mV | τ act, -40 mV (KCNQ2; KCNQ2, 100 µM): 353 ± 22 ms | τ deact, -80 mV (KCNQ2; KCNQ2, 100 µM): 190 ± 8 ms
